From the supplement of paper PMC10307832

Tests used:
Experiment in all cases: relative viability (nuclei count vs DMSO), 5 days (fraction); higher = more cells survive
BAY61-3606 + Decitabine = compound: COC1=C(C=C(C=C1)C2=CC3=NC=CN3C(=N2)NC4=C(C=CC=N4)C(=O)N)OC [BAY61-3606] + Nc1ncn([C@H]2C[C@H](O)[C@@H](CO)O2)c(=O)n1 [Decitabine] (partner 2 µM)
In short: (§1)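 After 5 days of treatment, lung cancer cells in 1536-well plates were fixed and stained in a single step (final 0.05% Triton X-100, 1% formaldehyde, 1 ug/ml Hoechst) and their nuclei counted on 4× images. Treatment had been applied by pin tool the day after seeding as one drug alone or as a fixed anchor-drug dose with five library-drug doses (not always all listed) in √10 steps. Relative viability is the nuclei count of treated wells divided by that of vehicle wells, and values are medians of duplicate plates.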

BAY61-3606 + Vorinostat = compound: COC1=C(C=C(C=C1)C2=CC3=NC=CN3C(=N2)NC4=C(C=CC=N4)C(=O)N)OC [BAY61-3606] + O=C(CCCCCCC(=O)Nc1ccccc1)NO [Vorinostat] (partner 1 µM)
In short: as §1

Doxorubicin + Lapatinib = compound: COc1cccc2c1C(=O)c1c(O)c3c(c(O)c1C2=O)C[C@@](O)(C(=O)CO)C[C@@H]3O[C@H]1C[C@H](N)[C@H](O)[C@H](C)O1 [Doxorubicin] + CS(=O)(=O)CCNCc1ccc(-c2ccc3ncnc(Nc4ccc(OCc5cccc(F)c5)c(Cl)c4)c3c2)o1 [Lapatinib] (partner 2 µM)
In short: as §1

Doxorubicin + Alpelisib = compound: COc1cccc2c1C(=O)c1c(O)c3c(c(O)c1C2=O)C[C@@](O)(C(=O)CO)C[C@@H]3O[C@H]1C[C@H](N)[C@H](O)[C@H](C)O1 [Doxorubicin] + Cc1nc(NC(=O)N2CCC[C@H]2C(N)=O)sc1-c1ccnc(C(C)(C)C(F)(F)F)c1 [Alpelisib] (partner 2 µM)
In short: as §1

Cell Line	relative viability (BAY61-3606 + Decitabine; first compound 0.06325 µM)	relative viability (BAY61-3606 + Decitabine; first compound 0.2 µM)	relative viability (BAY61-3606 + Decitabine; first compound 0.6325 µM)	relative viability (BAY61-3606 + Decitabine; first compound 2 µM)	relative viability (BAY61-3606 + Vorinostat; first compound 0.06325 µM)	relative viability (BAY61-3606 + Vorinostat; first compound 0.2 µM)	relative viability (BAY61-3606 + Vorinostat; first compound 0.6325 µM)	relative viability (BAY61-3606 + Vorinostat; first compound 2 µM)	relative viability (Doxorubicin + Lapatinib; first compound 0.001 µM)	relative viability (Doxorubicin + Lapatinib; first compound 0.003162 µM)	relative viability (Doxorubicin + Lapatinib; first compound 0.01 µM)	relative viability (Doxorubicin + Lapatinib; first compound 0.03162 µM)	relative viability (Doxorubicin + Lapatinib; first compound 0.1 µM)	relative viability (Doxorubicin + Alpelisib; first compound 0.001 µM)	relative viability (Doxorubicin + Alpelisib; first compound 0.003162 µM)	relative viability (Doxorubicin + Alpelisib; first compound 0.01 µM)	relative viability (Doxorubicin + Alpelisib; first compound 0.03162 µM)	relative viability (Doxorubicin + Alpelisib; first compound 0.1 µM)	relative viability (BAY61-3606 + Decitabine; first compound 0.02 µM)	relative viability (BAY61-3606 + Vorinostat; first compound 0.02 µM)
HOP-62	0.2	0.228	0.266	0.22	0.544	0.538	0.667	0.397	0.811	1.15	1.02	1.1	0.853	0.873	1.26	1.15	0.879	0.934		
LC-2-ad	0.772	0.775	0.778	0.92	0.743	0.588	0.707	0.721	0.838	0.958	0.935	0.697	0.255	0.892	0.87	0.924	0.859	0.724	0.849	0.821
LCLC-97TM1	0.222	0.247	0.223	0.228	0.818	0.534	0.778	0.589	1.13	0.917	0.847	0.63	0.579	0.228	0.219	0.269	0.24	0.285	0.223	0.893
LK-2	0.287	0.362	0.28	0.342	0.297	0.301	0.327	0.306	0.879	0.74	0.804	0.724	0.81	0.521	0.642	0.947	0.868	0.85	0.319	0.264
LOU-NH91	0.805	0.847	0.838	0.746	0.796	0.871	0.915	0.858		0.736	0.765	0.579	0.599		0.707	0.701	0.589	0.398	0.809	1.03
LU99A	1.01	0.966	0.804	0.559	0.399	0.48	0.434	0.401	1.01	1.16	0.954	0.583	0.788	0.489	0.648	0.549	0.505	0.51	0.926	0.548
LXF-289	0.402	0.411	0.396	0.405	0.839	0.666	0.849	0.782	0.865	0.886	0.864	0.891	0.823	1.02	1.1	1.07	1.08	1.06	0.399	0.802
NCI-H23	0.329	0.363	0.346	0.383	0.701	0.53	0.553	0.501		1.1	0.852	0.481	0.43		0.716	0.555	0.517	0.662	0.393	0.542
NCI-H322M	0.666	0.662	0.706	0.657	0.872	0.974	0.866	0.74	0.636	0.563	0.547	0.521	0.569	0.916	0.77	0.924	0.769	0.777	0.747	0.985
NCI-H358	0.228	0.241	0.228	0.14	0.759	0.631	0.658	0.386	0.503	0.441	0.334	0.195	0.207	0.796	0.916	0.569	0.19	0.154	0.226	0.697
NCI-H460	0.572	0.43	0.448	0.382	0.862	0.709	0.65	0.447	0.86	0.592	0.247	0.0187	0.0161	0.584	0.386	0.288	0.024	0.0112	0.508	0.786
NCI-H520	0.67	0.515	0.518	0.557	0.861	0.624	0.71	0.638	0.881	0.965	0.753	0.48	0.248	0.903	1.05	0.858	0.732	0.738	0.508	0.768
NCI-H596	0.967	1.14	0.965	1.08	0.568	0.514	0.771	0.686	1.08	1.1	1.05	0.943	1.03	0.446	0.537	0.524	0.446	0.551	1.06	0.726
NCI-H647	0.433	0.391	0.416	0.256	0.566	0.441	0.529	0.287	1.02	1.24	0.643	0.119	0.0876	1.15	1.08	0.98	0.288	0.163	0.382	0.598
NCI-H650	0.302	0.338	0.385	0.301	0.414	0.428	0.355	0.35	0.925	0.838	0.837	0.595	0.0014	1.31	1.13	1.06	0.938	0.822	0.358	0.466
NCI-H661	0.546	0.546	0.573	0.534	0.825	0.773	0.864	0.779	0.506	0.515	0.492	0.498	0.493	0.589	0.702	0.511	0.592	0.469	0.594	0.78

Cell Line	relative viability (BAY61-3606 + Decitabine; first compound 0.06325 µM)	relative viability (BAY61-3606 + Decitabine; first compound 0.2 µM)	relative viability (BAY61-3606 + Decitabine; first compound 0.6325 µM)	relative viability (BAY61-3606 + Decitabine; first compound 2 µM)	relative viability (BAY61-3606 + Vorinostat; first compound 0.06325 µM)	relative viability (BAY61-3606 + Vorinostat; first compound 0.2 µM)	relative viability (BAY61-3606 + Vorinostat; first compound 0.6325 µM)	relative viability (BAY61-3606 + Vorinostat; first compound 2 µM)	relative viability (Doxorubicin + Lapatinib; first compound 0.001 µM)	relative viability (Doxorubicin + Lapatinib; first compound 0.003162 µM)	relative viability (Doxorubicin + Lapatinib; first compound 0.01 µM)	relative viability (Doxorubicin + Lapatinib; first compound 0.03162 µM)	relative viability (Doxorubicin + Lapatinib; first compound 0.1 µM)	relative viability (Doxorubicin + Alpelisib; first compound 0.001 µM)	relative viability (Doxorubicin + Alpelisib; first compound 0.003162 µM)	relative viability (Doxorubicin + Alpelisib; first compound 0.01 µM)	relative viability (Doxorubicin + Alpelisib; first compound 0.03162 µM)	relative viability (Doxorubicin + Alpelisib; first compound 0.1 µM)	relative viability (BAY61-3606 + Decitabine; first compound 0.02 µM)	relative viability (BAY61-3606 + Vorinostat; first compound 0.02 µM)
NCI-H727	0.8	0.947	0.981	0.895	1.12	1.07	1.17	1.24	0.76	0.784	0.792	0.666	0.681	0.45	0.617	0.55	0.469	0.705	0.8	1.03
NCI-H838	0.508	0.47	0.454	0.393	0.74	0.7	0.652	0.553	1.02	1.06	0.834	0.375	0.195	1	1.05	0.979	0.919	0.461	0.448	0.743
NCI-H1355	0.377	0.389	0.359	0.361	0.617	0.574	0.645	0.604	0.952	1.08	0.963	0.888	0.856	0.868	0.96	0.889	0.839	0.823	0.391	0.722
NCI-H1395	0.709	0.799	0.661	0.686	0.705	0.595	0.705	0.706	0.921	0.986	0.949	0.803	0.607	0.964	0.985	0.98	0.851	0.791	0.824	0.736
NCI-H1437	0.602	0.564	0.563	0.582	0.915	0.856	0.925	0.751	0.772	0.836	0.61	0.278	0.209	1.03	1	0.94	0.611	0.257	0.579	0.919
NCI-H1651	0.539	0.555	0.568	0.481	0.509	0.523	0.539	0.542	0.784	0.729	0.475	0.166	0.129	0.902	0.996	0.875	0.424	0.201	0.621	0.62
NCI-H1666	0.655	0.658	0.737	0.686	1.14	1.12	1.05	1.18	0.699	0.507	0.296	0.25	0.236	0.938	0.814	0.551	0.27	0.284	0.784	1.02
NCI-H1734	0.512	0.503	0.504	0.388	0.804	0.651	0.769	0.441	1.07	1.06	0.948	0.53	0.466	0.589	0.682	0.662	0.604	0.661	0.551	0.826
NCI-H1755	0.666	0.656	0.673	0.773	0.676	0.764	0.803	0.733	0.962	1.05	0.991	1.07	0.998	0.918	0.992	0.719	0.947	0.94	0.671	0.871
NCI-H1793	0.501	0.558	0.539	0.651	0.83	0.684	1.04	0.989		0.93	0.643	0.537	0.659		0.557	0.675	0.389	0.588	0.504	0.842
NCI-H1915	0.261	0.265	0.253	0.23	0.528	0.478	0.511	0.483	0.975	0.929	0.99	0.975	0.99	0.98	1.05	1.1	1.05	1.12	0.258	0.515
NCI-H1944	0.466	0.424	0.434	0.327	0.538	0.515	0.559	0.487	0.872	0.827	0.857	0.693	0.841	0.8	0.836	0.851	0.83	0.885	0.408	0.65
NCI-H1975	0.416	0.438	0.421	0.271	0.734	0.712	0.722	0.585	0.887	0.902	0.719	0.253	0.202	0.64	0.597	0.625	0.334	0.232	0.394	0.849
NCI-H1993	0.622	0.542	0.536	0.601	0.718	0.756	0.0488	0.67	0.823	0.778	0.748	0.633	0.501	0.677	0.627	0.696	0.627	0.619	0.632	1.06
NCI-H2009	0.359	0.352	0.365	0.415	0.833	0.714	0.734	0.697	0.912	0.245	0.763	0.376	0.283	1.08	1.2	1.17	1.07	0.478	0.368	0.703
NCI-H2023	0.297	0.237	0.266	0.19	0.671	0.638	0.82	0.468	0.226	0.734	0.252	0.134	0.11	0.595	0.617	0.524	0.203	0.0842	0.221	0.856
